Results reported in PubChem BioAssay AID2060615 (Molecular Pharmacology Branch, DTP, NCI, 2025).

System: 496974-208-R-J2-PDC complex spheroids, growth % test/control
Test: Anticancer human tumor 496974-208-R-J2-PDC patient-derived pancreatic carcinoma cell line growth inhibition [CLK]
Details: for IC50: curve of first compound; for viability, T/C: stronger effect = lower value
Outline: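 Multi-cell-type spheroids combined patient-derived tumor cells with HUVEC endothelial cells and human mesenchymal stem cells. Paired agents were dosed in half-log steps down from about clinical Cmax, or from 10 microM where Cmax was unknown.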

[1] = second compound 0.0316 µM, first compound 0.00949 µM
[2] = second compound 0.0316 µM, first compound 0.03 µM
[3] = second compound 0.0316 µM, first compound 0.0949 µM
[4] = second compound 0.0316 µM, first compound 0.3 µM
[5] = second compound 0.1 µM, first compound 0.00949 µM
[6] = second compound 0.1 µM, first compound 0.03 µM
[7] = second compound 0.1 µM, first compound 0.0949 µM
[8] = second compound 0.1 µM, first compound 0.3 µM
[9] = second compound 0.316 µM, first compound 0.00949 µM
[10] = second compound 0.316 µM, first compound 0.03 µM
[11] = second compound 0.316 µM, first compound 0.0949 µM
[12] = second compound 0.316 µM, first compound 0.3 µM
[13] = second compound 1 µM, first compound 0.00949 µM
[14] = second compound 1 µM, first compound 0.03 µM
[15] = second compound 1 µM, first compound 0.0949 µM
[16] = second compound 1 µM, first compound 0.3 µM
[17] = second compound 3.16 µM, first compound 0.00949 µM
[18] = second compound 3.16 µM, first compound 0.03 µM
[19] = second compound 3.16 µM, first compound 0.0949 µM
[20] = second compound 3.16 µM, first compound 0.3 µM
[21] = second compound 10 µM, first compound 0.00949 µM
[22] = second compound 10 µM, first compound 0.03 µM
[23] = second compound 10 µM, first compound 0.0949 µM
[24] = second compound 10 µM, first compound 0.3 µM
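Further: spheroids exposed to the drugs for 7 days before readout.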
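Wherever viability, T/C is given: 100% = DMSO vehicle control wells.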

With C=CC(=O)Nc1cc(Nc2nccc(-c3cn(C)c4ccccc34)n2)c(OC)cc1N(C)CCN(C)C + CNC(=O)c1ccc(Nc2nc(OC3CCCC3)c3c(-c4ccc5nc(C)oc5c4)c[nH]c3n2)c(OC)c1 the IC50 (second compound 0.0316 µM) was > 300 nM, the IC50 (second compound 0.1 µM) was > 300 nM and the IC50 (second compound 0.316 µM) was > 300 nM. The IC50 (second compound 1 µM) was 152 nM, the IC50 (second compound 3.16 µM) was 122 nM and the IC50 (second compound 10 µM) was 75.8 nM. It also gave a viability, T/C (second compound 0.0316 µM, first compound 0.000949 µM) of 108%, a viability, T/C (second compound 0.0316 µM, first compound 0.003 µM) of 99.3% and a viability, T/C [1] of 88%. For the same compound, the viability, T/C [2] was 96.5%, the viability, T/C [3] was 90.2% and the viability, T/C [4] was 71.7%. It also gave a viability, T/C (second compound 0.1 µM, first compound 0.000949 µM) of 80.6%, a viability, T/C (second compound 0.1 µM, first compound 0.003 µM) of 89.5% and a viability, T/C [5] of 67.1%. The viability, T/C [6] was 72.8%, the viability, T/C [7] was 70% and the viability, T/C [8] was 53.1%. For the same compound, the viability, T/C (second compound 0.316 µM, first compound 0.000949 µM) was 81.1%, the viability, T/C (second compound 0.316 µM, first compound 0.003 µM) was 77.4% and the viability, T/C [9] was 85.2%. For the same compound, the viability, T/C [10] was 74.5%, the viability, T/C [11] was 60.4% and the viability, T/C [12] was 51.2%. For the same compound, the viability, T/C (second compound 1 µM, first compound 0.000949 µM) was 76.7%, the viability, T/C (second compound 1 µM, first compound 0.003 µM) was 70.2% and the viability, T/C [13] was 66%. The viability, T/C [14] was 65.1%, the viability, T/C [15] was 57.2% and the viability, T/C [16] was 40.9%. For the same compound, the viability, T/C (second compound 3.16 µM, first compound 0.000949 µM) was 63.4%, the viability, T/C (second compound 3.16 µM, first compound 0.003 µM) was 64.1% and the viability, T/C [17] was 65.6%. The viability, T/C [18] was 57.8%, the viability, T/C [19] was 51.7% and the viability, T/C [20] was 41.1%. For the same compound, the viability, T/C (second compound 10 µM, first compound 0.000949 µM) was 60.3%, the viability, T/C (second compound 10 µM, first compound 0.003 µM) was 57.9% and the viability, T/C [21] was 57.5%. The viability, T/C [22] was 51.3%, the viability, T/C [23] was 51.4% and the viability, T/C [24] was 30.4%.
With NC(=O)C(=Cn1cnc(-c2cc(C(F)(F)F)cc(C(F)(F)F)c2)n1)c1cncnc1 + CNC(=O)c1ccc(Nc2nc(OC3CCCC3)c3c(-c4ccc5nc(C)oc5c4)c[nH]c3n2)c(OC)c1 the IC50 (second compound 0.0316 µM) was 158 nM, the IC50 (second compound 0.1 µM) was 81.6 nM and the IC50 (second compound 0.316 µM) was < 9.49 nM. For the same compound, the IC50 (second compound 1 µM) was < 9.49 nM, the IC50 (second compound 3.16 µM) was < 9.49 nM and the IC50 (second compound 10 µM) was < 9.49 nM. The viability, T/C [1] was 83.3%, the viability, T/C [2] was 77.3% and the viability, T/C [3] was 65.1%. The viability, T/C [4] was 31.4%, the viability, T/C (second compound 0.0316 µM, first compound 0.949 µM) was 20.5% and the viability, T/C (second compound 0.0316 µM, first compound 3 µM) was 14.1%. The viability, T/C [5] was 68.5%, the viability, T/C [6] was 56.3% and the viability, T/C [7] was 52%. The viability, T/C [8] was 27.9%, the viability, T/C (second compound 0.1 µM, first compound 0.949 µM) was 20.9% and the viability, T/C (second compound 0.1 µM, first compound 3 µM) was 16.8%. For the same compound, the viability, T/C [9] was 47.2%, the viability, T/C [10] was 48.6% and the viability, T/C [11] was 43.9%. It also gave a viability, T/C [12] of 21.4%, a viability, T/C (second compound 0.316 µM, first compound 0.949 µM) of 18.8% and a viability, T/C (second compound 0.316 µM, first compound 3 µM) of 12.4%. For the same compound, the viability, T/C [13] was 46.6%, the viability, T/C [14] was 40.6% and the viability, T/C [15] was 29.8%. It also gave a viability, T/C [16] of 16.1%, a viability, T/C (second compound 1 µM, first compound 0.949 µM) of 14.3% and a viability, T/C (second compound 1 µM, first compound 3 µM) of 9.67%. For the same compound, the viability, T/C [17] was 44.9%, the viability, T/C [18] was 28.7% and the viability, T/C [19] was 20.2%. The viability, T/C [20] was 12.1%, the viability, T/C (second compound 3.16 µM, first compound 0.949 µM) was 10.8% and the viability, T/C (second compound 3.16 µM, first compound 3 µM) was 5.23%. The viability, T/C [21] was 39.4%, the viability, T/C [22] was 28.8% and the viability, T/C [23] was 19.1%. It also gave a viability, T/C [24] of 9.35%, a viability, T/C (second compound 10 µM, first compound 0.949 µM) of 8.25% and a viability, T/C (second compound 10 µM, first compound 3 µM) of 3.76%.
For Nc1ccccc1NC(=O)c1ccc(CNC(=O)OCc2cccnc2)cc1 + CNC(=O)c1ccc(Nc2nc(OC3CCCC3)c3c(-c4ccc5nc(C)oc5c4)c[nH]c3n2)c(OC)c1, the IC50 (second compound 0.0316 µM) was 4520 nM, the IC50 (second compound 0.1 µM) was 4530 nM and the IC50 (second compound 0.316 µM) was 4360 nM. For the same compound, the IC50 (second compound 1 µM) was 4230 nM, the IC50 (second compound 3.16 µM) was 3340 nM and the IC50 (second compound 10 µM) was 3340 nM. For the same compound, the viability, T/C (second compound 0.0316 µM, first compound 0.0316 µM) was 92.7%, the viability, T/C (second compound 0.0316 µM, first compound 0.1 µM) was 92.8% and the viability, T/C (second compound 0.0316 µM, first compound 0.316 µM) was 89.9%. It also gave a viability, T/C (second compound 0.0316 µM, first compound 1 µM) of 78%, a viability, T/C (second compound 0.0316 µM, first compound 3.16 µM) of 75.3% and a viability, T/C (second compound 0.0316 µM, first compound 10 µM) of 0.72%. For the same compound, the viability, T/C (second compound 0.1 µM, first compound 0.0316 µM) was 81.8%, the viability, T/C (second compound 0.1 µM, first compound 0.1 µM) was 72.5% and the viability, T/C (second compound 0.1 µM, first compound 0.316 µM) was 66.3%. It also gave a viability, T/C (second compound 0.1 µM, first compound 1 µM) of 61.4%, a viability, T/C (second compound 0.1 µM, first compound 3.16 µM) of 73.6% and a viability, T/C (second compound 0.1 µM, first compound 10 µM) of 3.35%. It also gave a viability, T/C (second compound 0.316 µM, first compound 0.0316 µM) of 78.6%, a viability, T/C (second compound 0.316 µM, first compound 0.1 µM) of 72.9% and a viability, T/C (second compound 0.316 µM, first compound 0.316 µM) of 74.2%. It also gave a viability, T/C (second compound 0.316 µM, first compound 1 µM) of 56.1%, a viability, T/C (second compound 0.316 µM, first compound 3.16 µM) of 69.2% and a viability, T/C (second compound 0.316 µM, first compound 10 µM) of 1.48%. It also gave a viability, T/C (second compound 1 µM, first compound 0.0316 µM) of 69.1%, a viability, T/C (second compound 1 µM, first compound 0.1 µM) of 65.1% and a viability, T/C (second compound 1 µM, first compound 0.316 µM) of 67.8%. The viability, T/C (second compound 1 µM, first compound 1 µM) was 58.5%, the viability, T/C (second compound 1 µM, first compound 3.16 µM) was 68.6% and the viability, T/C (second compound 1 µM, first compound 10 µM) was 3%. For the same compound, the viability, T/C (second compound 3.16 µM, first compound 0.0316 µM) was 63.5%, the viability, T/C (second compound 3.16 µM, first compound 0.1 µM) was 59.2% and the viability, T/C (second compound 3.16 µM, first compound 0.316 µM) was 55%. For the same compound, the viability, T/C (second compound 3.16 µM, first compound 1 µM) was 49.7%, the viability, T/C (second compound 3.16 µM, first compound 3.16 µM) was 53.5% and the viability, T/C (second compound 3.16 µM, first compound 10 µM) was 4.03%. The viability, T/C (second compound 10 µM, first compound 0.0316 µM) was 60.2%, the viability, T/C (second compound 10 µM, first compound 0.1 µM) was 53.4% and the viability, T/C (second compound 10 µM, first compound 0.316 µM) was 52.1%. For the same compound, the viability, T/C (second compound 10 µM, first compound 1 µM) was 42.9%, the viability, T/C (second compound 10 µM, first compound 3.16 µM) was 53.2% and the viability, T/C (second compound 10 µM, first compound 10 µM) was 4.38%.
